Source: PMC12095788 (Communications Chemistry, 2025)

Target: T1, Nurr1 LBD homodimer (Homo sapiens, UniProt P43354)
T1 construct: a plasmid construct encoding Nurr1 (aa 364-598) in a pMal vector system; sGFP-Nurr1 LBD protein and sGFP-RXRα LBD[26] were titrated against a fixed concentration of Tb-SA conjugated Nurr1 LBD protein; MBP (cleaved yes); made in house; host or cells: E.coli BL21-R3-pRARE2 (biotinylated Nurr1 LBD)
Experiment: HTRF Nurr1 homodimer formation assay
Format: biochemical

T1 sequence (P43354 364-598 limits assumed): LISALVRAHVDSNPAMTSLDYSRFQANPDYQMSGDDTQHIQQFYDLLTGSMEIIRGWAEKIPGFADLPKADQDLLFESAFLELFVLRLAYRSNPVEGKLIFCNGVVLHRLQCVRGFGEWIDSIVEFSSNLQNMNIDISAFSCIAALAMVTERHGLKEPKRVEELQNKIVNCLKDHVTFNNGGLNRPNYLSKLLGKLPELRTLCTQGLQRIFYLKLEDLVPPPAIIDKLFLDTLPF

In the case of `O=C(O)C1=C(C(=O)Nc2ccc(-c3ccccc3OCc3ccccc3)cc2F)CCC1` [compound 1, 2-{[2’-(Benzyloxy)-3-fluoro-[1,1’-biphenyl]-4-yl]carbamoyl}cyclopent-1-ene-1-carboxylic acid], the “effect on Nurr1 homodimerization” value is reported as “markedly disrupted”.
